Results reported in patent publication US6362226B1, “Modulation of in vivo glutamine and glycine levels in the treatment of autism” (Vanderbilt University, priority 1999, dated 2002).

System: autistic patients
Assay: Open-label dextromethorphan treatment of autistic patients B and F with elevated plasma glutamine and/or glycine, rated by treatment-blinded observers
Format: in vivo, human
Excerpt: Autistic patients were screened for elevated plasma levels of glutamine or glycine, or both. Five of 36 patients had elevated levels of either or both amino acids. One patient, “B”, had been diagnosed as having autism […] and 10 months. […] Further, B had elevated levels of glutamine in their cerebrospinal fluid, although their glycine levels were within the normal range. Their routine chemistry lab tests, including their urine organic acid profile, were normal. Patient “F” had persistent elevated glycine levels on multiple amino acid profiles which ranged from 324 to 439 μmol/L, where normal levels are from 120 to 315 μmol/L.
Both patients B and F were treated with dextromethorphan at 5 mg/kg body weight/day in the form of a cough and cold preparation sold under the registered trademark DELSYM® by McNeilLab, Inc. of Spring House, Pa., divided BID.
Example 1 discloses that 5/36 (14%) of children with autism have increased plasma levels of glutamine, glycine or both glutamine and glycine. In Example 1, an autistic patient with elevated glutamine and glycine and an autistic patient with glycine were treated with DM at 5 mg/kg body weight/day. […] The procedures of Example 1, however, were uncontrolled and open-label. In Example 2, treatment of children with autism with PB, SB or combinations of PB, SB and DM is systematically evaluated.

SMILES: COc1ccc2c(c1)[C@]13CCCC[C@@H]1[C@H](C2)N(C)CC3 [dextromethorphan]
- response upon resumption of long-term dextromethorphan treatment (patients B and F): responded as before and have continued to respond
- expressive and receptive language skills, attention span and focus, motor planning and socialization with peers (patients B and F, 5 mg/kg body weight/day divided BID as DELSYM, teachers and therapists blinded to treatment): significant improvement
- behavior after withdrawal of dextromethorphan treatment (patients B and F, treatment-blinded observers, all areas previously improved): regression in all of these areas of behavior measurement
- autistic behavior (two autistic patients, DM 5 mg/kg body weight/day, uncontrolled, open-label): clinical improvement
